Results published in publication PMC6150295, “Synthesis and Biological Evaluation of 2H-Indazole Derivatives: Towards Antimicrobial and Anti-Inflammatory Dual Agents” (Molecules : A Journal of Synthetic Chemistry and Natural …, 2017).
≈ marks a conversion by molar mass, not a printed value. Like-named read-outs stand apart in the source and are kept apart here.

Columns and labels:
Candida glabrata = experiment: Disk diffusion susceptibility test; type: cell-based; settings: for zone of inhibition at 5000 µg/disc: Nakaseomyces glabratus, read-out: Zone of inhibition at 5 mg per disc (mm) C. glabrata
Cytotoxicity MTT assay = type: cell-based, human; settings: human, 10 µM, 48 h exposure
Procedure: (§1) Biological assays on HaCaT and HeLa cell lines were conducted to gain insight into the cytotoxic effects of these derivatives on human cells, as compared with the effects observed on protozoa. Cellular viability was determined by MTT (3-(4,5-dimethylthiazol-2-yl)-2,5-diphenyltetrazolium bromide) assay. Compounds 18 and 23 were chosen considering their antiprotozoal and anticandidal effect, in addition to their COX-2 inhibitory activity. Additionally, compound 16 was considered as an unsubstituted reference.
(§2) HeLa (human cervical carcinoma) and HaCaT (immortalized human keratinocytes) cells were grown in DMEM (Invitrogen Corporation, Carlsbad, CA, USA) supplemented with 10% FBS (BioWest, Riverside, MO, USA), and maintained in standard culture conditions (37 °C, 95% humidity, and 5% CO2). Cells were allowed to grow to a density of 80% and then were harvested using sterile PBS/EDTA (pH 7.4) before starting every experiment. Cells were seeded in 96-well plates (7000 cells/well in 200 µL of DMEM). After 24 h the cells were exposed to test compounds dissolved in DMSO (J.T. Baker, Phillipsburg, NJ, USA) at different concentrations and diluted in 50 µL of DMEM, to reach 250 µL in the well. The exposure time was 48 h, and then viability was determined by MTT assay. The absorbance of formazan was determined for each well and its viability was related to the vehicle (100%). The IC50 was calculated from dose-response curve by non-linear fit using OriginPro 7.0 software (RockWare, Golden, CO, USA).

HeLa cells = experiment: Cytotoxicity MTT assay; type: cell-based, human; settings: Homo sapiens, 48 h exposure
Procedure: as §1, §2

HaCaT cells = experiment: Cytotoxicity MTT assay; type: cell-based, human; settings: Homo sapiens, HaCaT, 48 h exposure
Procedure: as §1, §2

[1] = test system: Escherichia coli strain 042 (EAEC); experiment: Disk diffusion susceptibility test; type: cell-based; settings: 5 mg per disc, 37 °C, 24 h
[2] = test system: Trichomonas vaginalis strain GT3; experiment: In vitro antiprotozoal assay (trophozoite subculture method); type: cell-based; settings: for IC50: Trichomonas vaginalis, GT3, trophozoites, 48 h with compound then 48 h subculture without drug, read-out: IC50 (µM) T. vaginalis
Procedure: (§3) The in vitro antiprotozoal assays against E. histolytica, G. intestinalis, and T. vaginalis of the 2-phenyl-2H-indazole and 2,3-diphenyl-2H-indazole derivatives were carried out following the method previously described. Metronidazole (MTZ) and albendazole (ABZ) were used as reference drugs. […] Similarly, compound 7, having a phenyl at position 2, has good activity against the three protozoa, ranking third in activity for T. vaginalis and forth against G. intestinalis and E. histolytica. […] These derivatives had groups H, COOCH3, Cl, and SO2CH3 at positions 2 and 3, substituents that induced the best response in 2-phenyl-2H-indazole derivatives. In addition, carboxylic acids 20 and 25 were of interest for comparative purposes with ester derivatives.
(§4) Trichomonas vaginalis strain GT3, Giardia intestinalis isolate IMSS:0981:1, and Entamoeba histolytica strain HM1-IMSS were used. Trophozoites of G. intestinalis were maintained in a TYI-S-33 medium supplemented with 10% calf serum and bovine bile. E. histolytica and T. vaginalis trophozoites were maintained in TYI-S-33 medium supplemented with 10% bovine serum. Briefly, 5 × 10^4 trophozoites of G. intestinalis or T. vaginalis, or 6 × 10^3 trophozoites of E. histolytica were incubated for 48 h at 37 °C with different concentrations of the compound to be tested, each added as solutions in DMSO. As a negative control, parasite cultures received an equivalent amount of DMSO only, while albendazole and metronidazole were included as positive controls. At the end of the treatment period, the cells were washed and subcultured for another 48 h in a fresh medium to which no drug was added. […] Experiments were carried out in triplicate and repeated at least twice.

[3] = test system: Entamoeba histolytica strain HM1-IMSS; experiment: as above; type: cell-based; settings: Entamoeba histolytica; trophozoites, 48 h with compound then 48 h subculture without drug; read-out: IC50 (µM) E. histolytica
Procedure: as §3, §4

[4] = test system: Giardia intestinalis isolate IMSS:0981:1; experiment: as above; type: cell-based; settings: for IC50: Giardia duodenalis, trophozoites, 48 h with compound then 48 h subculture without drug, read-out: IC50 (µM) G. intestinalis
Procedure: as §3, §4

[5] = target: T1, human recombinant cyclooxygenase-2 (Homo sapiens, UniProt P35354); experiment: COX inhibitor screening assay (Cayman kit); type: biochemical; settings: tested at 10 µM
T1 construct: purchased Cayman Chemical 560131
T1 sequence (P35354 18-604): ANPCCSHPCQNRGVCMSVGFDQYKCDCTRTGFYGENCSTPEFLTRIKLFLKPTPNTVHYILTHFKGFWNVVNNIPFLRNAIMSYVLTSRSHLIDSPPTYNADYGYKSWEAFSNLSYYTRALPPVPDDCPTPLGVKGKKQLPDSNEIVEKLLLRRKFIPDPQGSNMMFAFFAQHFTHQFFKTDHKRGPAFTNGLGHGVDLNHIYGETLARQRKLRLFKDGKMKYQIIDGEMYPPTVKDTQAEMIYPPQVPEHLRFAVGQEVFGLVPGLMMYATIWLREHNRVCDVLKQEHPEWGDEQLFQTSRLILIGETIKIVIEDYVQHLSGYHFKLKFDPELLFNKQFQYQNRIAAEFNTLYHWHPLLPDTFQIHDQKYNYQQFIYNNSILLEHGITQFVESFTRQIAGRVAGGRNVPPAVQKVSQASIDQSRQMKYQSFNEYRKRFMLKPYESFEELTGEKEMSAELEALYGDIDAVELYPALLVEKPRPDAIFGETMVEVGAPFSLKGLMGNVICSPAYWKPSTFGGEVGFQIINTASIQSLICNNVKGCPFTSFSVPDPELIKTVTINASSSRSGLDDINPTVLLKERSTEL
Procedure: Additionally, molecular docking studies using AutoDock Vina software (TSRI, La Jolla, CA, USA) were performed to aid in the interpretation of the experimental results. […] Nevertheless, these compounds represent an interesting starting point towards the design of new antiparasitic compounds with an additional COX-2 inhibitory property.
Assays were carried out by duplicate following the instructions provided by the manufacturer.

[6] = test system: Escherichia coli strain EDL933 (EHEC); experiment: Disk diffusion susceptibility test; type: cell-based; settings: 5 mg per disc, 37 °C, 24 h
Candida albicans = experiment: Disk diffusion susceptibility test; type: cell-based; settings: for zone of inhibition at 5000 µg/disc: Candida albicans, read-out: Zone of inhibition at 5 mg per disc (mm) C. albicans
[7] = test system: Salmonella enterica serovar Typhi; experiment: Disk diffusion susceptibility test; type: cell-based; settings: for Inhibition (positive / none) S. Typhi: 5 mg per disc, 37 °C, 24 h
C. glabrata = experiment: Minimum inhibitory concentration (antimycotic effect); type: cell-based, Candida glabrata; settings: Nakaseomyces glabratus
C. albicans = experiment: as above; type: cell-based; settings: Candida albicans
[8] = read-out: % Viability (10 µM) HaCaT Cells
[9] = read-out: % Viability (10 µM) HeLa Cells
[10] = 16 relative to 7, 20 compared to 13
[11] = positive control, ketoconazole 50 µg

Row | SMILES | Inhibition (positive / none) C. glabrata (Candida glabrata; 5 mg per disc, 37 °C, 24 h) | viability at 48 h, 10 µM (Cytotoxicity MTT assay; [8]) | viability at 48 h, 10 µM (Cytotoxicity MTT assay; [9]) | Inhibition (positive / none) E. coli 042 [1] | IC50 [2] | IC50 [3] | IC50 [4] | % of Inhibition of COX-2 [5] | Inhibition (positive / none) E. coli 933 [6] | Inhibition (positive / none) C. albicans (Candida albicans; 5 mg per disc, 37 °C, 24 h) | melting point | Inhibition (positive / none) S. Typhi [7] | MIC (C. glabrata) | MIC (C. albicans) | zone of inhibition at 5000 µg/disc (Candida glabrata) | inhibition at 10 µM [5] | zone of inhibition at 5000 µg/disc (Candida albicans) | also measured
1 | c1ccc(-c2c3ccccc3nn2-c2ccccc2)cc1 [Compound 16, 2,3-Diphenyl-2H-indazole] | - | 95 ± 2.44% | 93 ± 4.57% | - | 0.0573 ± 0.0026 µM | 0.303 ± 0.0105 µM | 0.0518 ± 0.0052 µM | Inactive | - | - | 107.4 to 107.9 °C | - |  |  |  |  |  | IC50 (HeLa cells): 125 ± 29.6 µM; IC50 (HaCaT cells): 93.7 ± 17.3 µM; improvement in potency against T. vaginalis relative to the analog [2, 10]: two-fold; improvement in potency against G. intestinalis relative to the analog [4, 10]: two-fold
2 | CC(=O)N1CCN(c2ccc(OCC3COC(Cn4ccnc4)(c4ccc(Cl)cc4Cl)O3)cc2)CC1 (stereo not shown) [Ketoconazole, reference compound] |  |  |  |  |  |  |  |  |  |  |  |  | 0.079 mM (≈ 42 µg/mL) | 0.045 mM (≈ 23.9 µg/mL) |  |  |  | Inhibition (positive / none) C. glabrata (Candida glabrata; [11]): +; Inhibition (positive / none) C. albicans (Candida albicans; [11]): +
3 | COC(=O)c1ccc(-c2c3ccccc3nn2-c2ccccc2)cc1 [Compound 23, Methyl 4-(2-phenyl-2H-indazol-3-yl) benzoate] | + | 97.8 ± 5.19% | 93.7 ± 7.48% | - | 0.143 ± 0.0043 µM | 0.0731 ± 0.0086 µM | 0.119 ± 0.0086 µM |  | - | + | 164.5 to 166.3 °C | - | 15.2 mM (≈ 5000 µg/mL) | 3.81 mM (≈ 1250 µg/mL) | 4 mm | 36.4 ± 1.7% | 13 mm | 
4 | COC(=O)c1ccc(-n2nc3ccccc3c2-c2ccccc2)cc1 [Compound 18, Methyl 4-(3-phenyl-2H-indazol-2-yl) benzoate] | + | 96.2 ± 4.14% | 94.1 ± 3.31% | - | 0.102 ± 0.0151 µM | 0.0502 ± 0.0022 µM | 0.0959 ± 0.0022 µM |  | - | + | 152.4 to 154.9 °C | - | 15.2 mM (≈ 5000 µg/mL) | 3.81 mM (≈ 1250 µg/mL) | 3 mm | 50 ± 9.49% | 10 mm | times more active than metronidazole against G. intestinalis ([4]; ratio of IC50 values): 12.8 times
5 | c1ccc(-n2cc3ccccc3n2)cc1 [Compound 7, 2-Phenyl-2H-indazole] | - |  |  | - | 0.118 ± 0.0218 µM | 0.0798 ± 0.0036 µM | 0.113 ± 0.0218 µM | Inactive | - | - | 81.2 to 81.6 °C | + |  |  |  |  |  | zone of inhibition at 5000 µg/disc ([7]; Salmonella enterica, TYPHI, read-out: Zone of inhibition at 5 mg per disc (mm) S. Typhi): 9 mm
